pIC50: −log10 of the molar value.
Key:
[1] = tested on: LNCaP cells; experiment: In vitro LNCaP cell proliferation inhibition test (CellTiter-Glo); assay type: cell-based; details: for Maximum Inhibition (%) / pIC50: 6 days; for pIC50: Homo sapiens, read-out: Anti-proliferative activity IC50
Protocol: The cells were then digested with trypsin and counted using an automated cell counter to determine cell density. The cell suspension was diluted to the desired density in growth medium. Subsequently, 100 μL of the cell suspension was seeded into 96-well plates and incubated at 37° C. with 5% CO2 for 24 hours. 10 μL of drug solution (including 3-fold serial dilutions of compounds or DMSO) was added to each well, and the plates were incubated at 37° C. with 5% CO2 for 6 days. Prior to measurement, the assay plates were equilibrated to room temperature. 40 μL of CellTiter-Glo® reagent was added to each well. The plates were mixed on an orbital shaker for 2 minutes to induce cell lysis. After incubation at room temperature for 60 minutes to stabilize the luminescence signal, the plates were read on an Envision plate reader.

[2] = In vivo pharmacokinetics in rats after oral gavage; details: male SD rats, PO 10 mg/kg
Protocol: Male SD rats were randomly divided into 6 groups, 3 rats per group. The rats were fasted but not water-deprived for 12-14 h one day before dosing. The test samples were then dissolved in a solvent of 5% DMSO+30% PEG400+65% (0.5% MC) and administered by gavage at 10 mg/kg. Food was provided 4 h after dosing. Blood samples (0.10 mL) were collected via the orbital sinus at 0, 15, 30 min, 1, 2, 4, 6, 8, and 24 h, with EDTA-K2 as anticoagulant. Blood samples were placed on ice after collection and centrifuged to separate plasma within 30 minutes (centrifugation conditions: 5000 rpm, 10 minutes, 4° C.). 50.0 μL of plasma sample (taken from −80° C. freezer, thawed naturally at room temperature and vortexed for 30 seconds) was added to a 1.5 mL centrifuge tube, followed by addition of 500 μL internal standard solution (methanol (TEDIA, HPLC grade), acetonitrile (TEDIA, HPLC grade), formic acid (FA, ACROS ORGANICS, HPLC grade), water was laboratory-made ultrapure water (100.0 ng·mL−1)). The mixture was vortexed for 60 seconds and centrifuged for 3 minutes (centrifugal force 12000 rpm). 100 μL of the supernatant was transferred to a 96-well injection plate containing an equal volume of water, mixed by shaking, and analyzed by LC-MS/MS with an injection volume of 10 μL. The data acquisition and control system software was Analyst 1.5.1 software (Applied Biosystem). The chromatographic sample peaks were integrated automatically. The ratio of sample peak area to internal standard peak area was used as an indicator for regression with sample concentration.
The pharmacokinetic parameters of representative compounds of the present invention were tested in male SD rats after oral gavage administration at 10 mg/kg according to the above conventional method to examine the pharmacokinetic characteristics of the compounds of the present invention in rats.

[3] = target: T1, AR (Homo sapiens, UniProt P10275, T878A); experiment: In vitro AR degradation activity test in LNCaP cells (ELISA, OD450); assay type: cell-based; details: for DC50: LNCaP cells, 24 hours
T1 construct: endogenous in cells; host or cells: LNCaP
T1 sequence (P10275 1-920 T878A): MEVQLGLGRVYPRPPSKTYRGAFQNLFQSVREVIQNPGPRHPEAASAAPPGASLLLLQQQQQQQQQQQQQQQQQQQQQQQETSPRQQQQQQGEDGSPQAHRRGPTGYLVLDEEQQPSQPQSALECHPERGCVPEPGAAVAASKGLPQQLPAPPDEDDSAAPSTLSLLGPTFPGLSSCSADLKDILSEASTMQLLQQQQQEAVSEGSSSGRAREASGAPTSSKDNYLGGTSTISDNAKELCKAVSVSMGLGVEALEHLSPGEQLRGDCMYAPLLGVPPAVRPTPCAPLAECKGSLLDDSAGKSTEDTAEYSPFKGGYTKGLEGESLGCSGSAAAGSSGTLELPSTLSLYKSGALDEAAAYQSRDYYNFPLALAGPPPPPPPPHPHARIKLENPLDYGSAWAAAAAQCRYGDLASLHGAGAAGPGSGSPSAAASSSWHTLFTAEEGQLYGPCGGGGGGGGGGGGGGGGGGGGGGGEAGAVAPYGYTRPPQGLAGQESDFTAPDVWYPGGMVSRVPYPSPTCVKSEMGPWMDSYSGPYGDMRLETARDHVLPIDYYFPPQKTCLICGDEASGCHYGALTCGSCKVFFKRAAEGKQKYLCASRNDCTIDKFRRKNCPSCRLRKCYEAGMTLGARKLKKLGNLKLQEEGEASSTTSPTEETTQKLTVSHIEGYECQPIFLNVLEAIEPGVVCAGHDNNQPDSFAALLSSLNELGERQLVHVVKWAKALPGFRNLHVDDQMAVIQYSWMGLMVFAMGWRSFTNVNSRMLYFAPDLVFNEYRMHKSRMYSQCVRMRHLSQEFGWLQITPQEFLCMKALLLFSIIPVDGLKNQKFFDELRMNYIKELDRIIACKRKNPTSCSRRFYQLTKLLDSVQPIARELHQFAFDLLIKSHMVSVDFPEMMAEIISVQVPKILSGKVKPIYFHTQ
Protocol: The cells were then digested with trypsin and counted using an automated cell counter. The cell suspension was diluted to the desired density in growth medium. The cell suspension was then seeded into 96-well plates at 100 μL per well, and the plates were incubated at 37° C. with 5% CO2 for 24 hours. The compounds were then diluted 200-fold to the final concentration with DMSO or 3-fold to the final concentration with culture medium. 50 μL of compound solution was transferred to the 96-well plate and incubated at 37° C. for 24 hours. After 24 hours of incubation, the cell plate was washed 3 times with DPBS, 100 μL of 1× lysis buffer was added to each well, and placed on ice for 30 minutes. The supernatant was collected. The protein in the cell lysate samples was quantified and then diluted to the required concentration. 100 μL of cell lysate sample was added to the appropriate wells, sealed with tape and pressed firmly on top of the wells, and the plate was incubated at 37° C. for 2 hours. The plate contents were then discarded, and washed 4 times with 1× wash buffer, 200 μL per well each time. 100 μL of reconstituted detection antibody was then added, the plate was sealed with tape and incubated at 37° C. for 1 hour. The aspiration/wash step was then repeated, 100 μL of reconstituted HRP-Linked secondary antibody was added to each well, the plate was sealed with tape and incubated at 37° C. for 30 minutes. The aspiration/wash step was then repeated, 100 μL of substrate solution was added to each well and incubated at 37° C. for 10 minutes, and finally 100 μL of stop solution was added to each well. The plate was gently tapped to ensure thorough mixing, and the OD450 nm was recorded.
Degradation rate (%)=(OD450_max−OD450_sample)/(OD450_max−OD450_min)×100,plotted using GraphPad Prism 5 software, and IC50 is calculated using SPSS software.

SMILES	Maximum Inhibition (%) [1] [%]	pIC50 [1]	DC50 [3] [nM]	other results
C[C@]12CC[C@H](O)CC1=CC[C@@H]1[C@@H]2CC[C@]2(C)C(c3cccnc3)=CC[C@@H]12 [Abiraterone, abiraterone, reference compound]	84.06	5.55		Kel [2]: 0.298 h⁻¹; MRTPO [2]: 4.60 h; AUC(0-inf) ([2]; rat, plasma): 198 ng·h/mL; AUC(0-t) ([2]; rat, plasma): 163 ng·h/mL; half-life ([2]; rat, plasma): 2.37 h; Cmax ([2]; rat, plasma, read-out: Cmax): 48.4 ng/mL; tmax ([2]; rat, plasma, read-out: tmax): 1.83 h
C[C@]12CC[C@H](NC(=O)c3ccncc3)CC1=CCC1C2CC[C@]2(C)C(c3cccnc3)=CCC12 (stereo partly drawn) [Compound 2, N-((3S,10R,13S)-10,13-dimethyl-17-(pyridin-3-yl)-2,3,4,7,8,9,10,11,12,13,14,15-dodecahydro-1H-cyclopenta[a]phenanthren-3-yl)isonicotinamide]	93.50	6.07		
C[C@]12CC[C@H](NC(=O)c3cccnc3)CC1=CCC1C2CC[C@]2(C)C(c3cccnc3)=CCC12 (stereo partly drawn) [Compound 3, N-((3S,10R,13S)-10,13-dimethyl-17-(pyridin-3-yl)-2,3,4,7,8,9,10,11,12,13,14,15-dodecahydro-1H-cyclopenta[a]phenanthren-3-yl)nicotinamide]			2870	
C[C@]12CC[C@H](NC(=O)c3ccncc3)CC1=CCC1C2CC[C@]2(C)C(n3cnc4ccccc43)=CCC12 (stereo partly drawn) [Compound 8, N-((3S,10R,13S)-17-(1H-benzo[d]imidazol-1-yl)-10,13-dimethyl-2,3,4,7,8,9,10,11,12,13,14,15-dodecahydro-1H-cyclopenta[a]phenanthren-3-yl)isonicotinamide]	104.5	6.12	3760	
C[C@]12CC[C@H](NC(=O)c3ccnnc3)CC1=CCC1C2CC[C@]2(C)C(n3cnc4ccccc43)=CCC12 (stereo partly drawn) [Compound 9]	95.87	6.12		
C[C@]12CC[C@H](NC(=O)c3ccnnc3)CC1=CCC1C2CC[C@]2(C)C(c3cncnc3)=CCC12 (stereo partly drawn) [Compound 10]	99.74	6.09	4250	
Cc1cn(C2=CCC3C4CC=C5C[C@@H](NC(=O)c6cccnc6)CC[C@]5(C)C4CC[C@]23C)cn1 (stereo partly drawn) [Compound 12, N-((3S,10R,13S)-10,13-dimethyl-17-(4-methyl-1H-imidazol-1-yl)-2,3,4,7,8,9,10,11,12,13,14,15-dodecahydro-1H-cyclopenta[a]phenanthren-3-yl)nicotinamide]	102.9	6.03	3580	
Cc1cn(C2=CCC3C4CC=C5C[C@@H](NC(=O)c6ccncc6F)CC[C@]5(C)C4CC[C@]23C)cn1 (stereo partly drawn) [Compound 15, N-((3S,10R,13S)-10,13-dimethyl-17-(4-methyl-1H-imidazol-1-yl)-2,3,4,7,8,9,10,11,12,13,14,15-dodecahydro-1H-cyclopenta[a]phenanthren-3-yl)-3-fluoroisonicotinamide]	102.6	6.12		
CCc1cn(C2=CCC3C4CC=C5C[C@@H](NC(=O)c6ccncc6)CC[C@]5(C)C4CC[C@]23C)cn1 (stereo partly drawn) [Compound 18, N-((3S,10R,13S)-17-(4-ethyl-1H-imidazol-1-yl)-10,13-dimethyl-2,3,4,7,8,9,10,11,12,13,14,15-dodecahydro-1H-cyclopenta[a]phenanthren-3-yl)isonicotinamide]	98.53	6.45	3210	Anti-proliferative activity, fold improvement compared to abiraterone ([1]; ratio to abiraterone IC50): 7.9 fold
CCc1cn(C2=CCC3C4CC=C5C[C@@H](NC(=O)c6ccnnc6)CC[C@]5(C)C4CC[C@]23C)cn1 (stereo partly drawn) [Compound 19]	97.68	6.37		
CC(C)c1cn(C2=CCC3C4CC=C5C[C@@H](NC(=O)c6ccncc6)CC[C@]5(C)C4CC[C@]23C)cn1 (stereo partly drawn) [Compound 20, N-((3S,10R,13S)-17-(4-isopropyl-1H-imidazol-1-yl)-10,13-dimethyl-2,3,4,7,8,9,10,11,12,13,14,15-dodecahydro-1H-cyclopenta[a]phenanthren-3-yl)isonicotinamide]	94.04	6.13		
C[C@]12CC[C@H](NC(=O)c3ccnnc3)CC1=CCC1C2CC[C@]2(C)C(n3cnc(C(F)(F)F)c3)=CCC12 (stereo partly drawn) [Compound 22]	104.1	6.09		
COc1cn(C2=CCC3C4CC=C5C[C@@H](NC(=O)c6ccnnc6)CC[C@]5(C)C4CC[C@]23C)cn1 (stereo partly drawn) [Compound 24]	98.02	6.32	3880	Anti-tumor activity and efficacy compared to enzalutamide ([1]; in words): comparable anti-tumor activity but significantly superior anti-tumor efficacy compared to enzalutamide
C[C@]12CC[C@H](NC(=O)c3ccnnc3)CC1=CCC1C2CC[C@]2(C)C(n3cnc(C#N)c3)=CCC12 (stereo partly drawn) [Compound 25]	89.52	6.33		
Cc1cn(C2=CCC3C4CC=C5C[C@@H](NC(=O)c6ccc(C#N)cc6)CC[C@]5(C)C4CC[C@]23C)cn1 (stereo partly drawn) [Compound 36, N-((3S,10R,13S)-17-(4-methyl-1H-imidazol-1-yl)-10,13-dimethyl-2,3,4,7,8,9,10,11,12,13,14,15-dodecahydro-1H-cyclopenta[a]phenanthren-3-yl)-4-cyanobenzamide]	99.38	6.19	1370	AR degradation activity, improvement compared to Galeterone ([3]; ratio to Galeterone DC50): 7.6 times

Reference: patent publication US20250073249A1, “STEROID COMPOUND, AND PREPARATION METHOD THEREFOR AND USE THEREOF” (SHANGHAI INSTITUTE OF MATERIA MEDICA, CHINESE ACADEMY OF …, priority 2022, published 2025)
